Reference: patent US10196356B2, “Mixed disulfide conjugates of thienopyridine compounds and uses thereof” (The Regents of the University of Michigan, priority 2013, dated 2019)
Where two headings read alike, the source gives them in different places.

Assays:
platelet aggregation = experiment: In vivo antiplatelet activity after intravenous injection; parameters: species or system male New Zealand (NZ) white rabbits
Experimental: FIG. 9 presents platelet activities of male NZ white rabbits following IV injection of (S)-clopNPT as described in Example X.
The antiplatelet activity of the mixed disulfide conjugates of clopidogrel was determined using male NZ white rabbits (1.2-1.25 kg).
To prepare intravenous solution, (S)-clopNPT was dissolved at 0.7 mg/ml in a mixture of N,N-dimethylacetamide (DMA), polyethylene glycol (PEG) 400, and saline at 5, 15 and 80 (v/v) ratio. The male NZ white rabbits were dosed at 2 mg/kg of (S)-clopNPT using two different methods. In Method 1, the intravenous solution was first mixed with 5 mM glutathione. After an incubation of 15 min at 37° C. to activate (S)-clopNPT, the mixture was intravenously injected to the rabbit via the jugular vein. In Method 2, the male NZ white rabbit was fed with 5 ml of Readisorb glutathione solution once daily for three days to increase cellular glutathione concentrations. On the third day, (S)-clopNPT dissolved in DMA/PEG400/saline was injected intravenously to the Readisorb-treated rabbit. As a negative control, (S)-clopidogrel was dosed intravenously to a male NZ white rabbit at 2 mg/kg as well. Prior to and 1 and 2 hours after dosing (S)-clopNPT, whole blood was drawn from the carotid artery into a plastic syringe containing 3.7% sodium citrate as the anticoagulant (1:10 volume ratio of citrate to blood). A whole blood cell count was determined with a Medonic CA620 hematology analyzer (Clinical Diagnostic Solutions, Inc., Plantation, Fla., USA). Platelet-rich plasma (PRP), the supernatant present after centrifugation of whole blood at 100×g for 10 min, was diluted with platelet-poor plasma (PPP) to achieve a platelet count of approximately 300,000/μl. […] Platelet aggregation was assessed by established nephelometric methods with the use of a 4-channel aggregometer (BioData PAP-4; BioData Corp., Horsham, Pa., USA) by recording the increase in light transmission through a stirred suspension of PRP maintained at 37° C. […]

[1] = Rate of formation of the AM from 2-oxoclopidogrel by HLMs in the presence of various thiol reductants; assay type: in vitro ADME, human; conditions: 0.3 mM thiol reductant; HLM, 0.1 mM 2-oxoclopidogrel
Experimental: The AM was produced in 0.1 ml of 50 mM KP buffer (pH 7.4) containing 0.2 mg/ml HLM, 0.1 mM 2-oxoclopidogrel, the NADPH-regenerating system, and the thiol reductants. The concentrations of the thiol reductants were 1 mM except for CPT, DFT and NPT which were 0.3 mM each. The reaction was initiated by the addition of 5 units of G6PD and incubated at 37° C. for 20 min. The active metabolite was then quantitated as the MP derivative as described in Materials and Methods. The reported rates were averaged over three separate measurements.
To examine the effects of various thiol reductants on the formation of the active metabolite (AM), the rates at which the AM was produced were determined. Production of the AM was performed in 0.1 ml of 50 mM potassium phosphate (KPi) buffer (pH 7.4) containing 0.2 mg/mL HLM, 0.1 mM 2-oxoclopidogrel, the NADPH-regenerating system, and 1 mM of each of the thiol reductants except that 0.3 mM CPT, DFT, or NPT were used. The reaction was initiated by the addition of 5 units of glucose-6-phosphate dehydrogenase (G6PD) and incubated at 37° C. for 20 min. The AM was then derivatized with 4 mM MPB at room temperature for 10 min, followed by acidification with acetic acid to 3% (v/v). For quantification, 50 pmoles of (S)-clopidogrel was added into each reaction mixture as internal standard (IS). The derivatized AM (AM-MP) was quantitated using LC-MS/MS.
The MS analyses of the reaction mixture were performed on an ion-trap mass spectrometer (LCQ DecaXP, Thermo Fisher Scientific, Waltham, Mass.) as reported previously (Zhang et al., 2012). In brief, the metabolites of 2-oxoclopidogrel were separated on a reverse phase C18 column (2×100 mm, 3 μm, Phenemonex, Calif.) using a binary mobile phase at a flow rate of 0.2 ml/min. The temperature of the C18 column was maintained at 40° C. using a column heater (Restek Corporation, Lancaster, Pa.). […] Transitions from m/z 504→m/z 354 for the AM-MP and from m/z 322→m/z 212 for the IS were used to quantitate the amount of the AM-MP based on a calibration curve consisting of various concentrations of cis-clopidogrel-MP.

[2] = Formation of mixed disulfide conjugates of clopidogrel by HLMs (Km of thiol); assay type: in vitro ADME, human; conditions: 2-oxoclopidogrel, read-out: Km for the formation of the mixed disulfide conjugate
Experimental: The mixed disulfide conjugates were produced by HLMs for both structural and semi-quantitative analyses. Metabolism of 2-oxoclopidogrel was performed in 0.2 ml of 50 mM KP buffer (pH 7.4) as described above except that the concentration of HLMs was increased to 1 mg/ml. The reaction was incubated at 37° C. for 30 min and then quenched by the addition of 0.1 ml of 10% of acetic acid in acetonitrile. The quenched samples were centrifuged at 13,000×g for 10 min to remove the HLMs. Aliquots of 50 μl of the supernatant were loaded onto a mass spectrometer to analyze both the active and conjugate metabolites.
The MS analyses were performed as described above except that the MS detector was operated in the dependent scan mode. The precursor ions were scanned from m/z 300-700, whereas the MS^2 spectra were obtained from m/z 100 to 700 for the four most abundant ions. For semi-quantitative analysis, 50 pmoles of the IS was spiked into each sample that had been quenched. The relative amounts of the AM and respective conjugates were calculated as the AUC ratios of the metabolites to that of the IS.

[3] = tested on: platelets (P2Y12 receptor); experiment: Ex vivo anti-platelet activity of the mixed disulfide conjugates (ADP-induced aggregation, aggregometer); assay type: cell-based, New Zealand white rabbits; conditions: free GSH 1 mM in PRP; 10 μM ADP
Experimental: The mixed disulfide conjugates were prepared and purified from the reaction mixtures in the presence of 0.3 mM CPT and NPT, along with three control samples containing either 1 mM GSH, no thiol reductant or no G6PD. All samples were re-suspended in 0.5 ml PPP, some of which were treated to 1 mM GSH to release the AM. Platelet aggregation was initiated by the addition of 10 μM ADP and recorded with an aggregometer. The percentage of aggregation was normalized to that of PRP and averaged over four separate measurements. For details, see Materials and Methods. Legend: PRP, untreated platelet-rich plasma; GSH, 1 mM GSH in PRP; −G6PD, metabolites produced in the absence of G6PD; —SH, metabolites produced in the absence of any thiol reductants; GSH, metabolites produced in the presence of 1 mM GSH; CPT, metabolites produced in the presence of 0.3 mM CPT; CPT+GSH, metabolites produced in the presence of 0.3 mM CPT and then treated with 1 mM GSH; NPT, metabolites produced in the presence of 0.3 mM NPT; NPT+GSH, metabolites produced in the presence of 0.3 mM NPT and then treated with 1 mM GSH.
In order to generate sufficient quantities of the mixed disulfide conjugates, the metabolism of 2-oxoclopidogrel was performed in 2-ml reaction mixtures containing 1 mg/ml HLM, 0.1 mM 2-oxoclopidogrel, the NADPH-regenerating system, and 0.3 mM CPT or NPT or 1 mM GSH. The reaction was initiated by the addition of 10 units G6PD and incubated at 37° C. for 50 min. Two control samples were prepared in parallel. […] After an incubation of 50 min, the reaction mixtures were centrifuged at 13,000×g to remove the HLMs. The supernatants were loaded onto SPE C18 cartridges to enrich the mixed disulfide conjugates. After extensive washing with water to remove salts and other water-soluble metabolites, the conjugate samples were eluted with 2 ml of methanol. The methanolic fractions were dried using a Speedvac concentrator and the dried samples were then re-suspended in 1 ml of platelet-poor plasma (PPP). Prior to the anti-platelet activity assays, the re-suspended conjugates were divided into two equal volumes (0.5 ml each), one of which was treated with 1 mM GSH at 37° C. for 30 min to generate the AM. Both samples were then placed on ice until use.
The procedures used to determine ex vivo anti-platelet activity were previously reported (see, e.g., Abell L M and Liu E C (2011) J Pharm Exp Ther 339(2):589-596).
Male New Zealand white rabbits (2.2-2.9 kg) were used as blood donors. Whole blood was drawn from a central ear artery into a plastic syringe containing 3.7% sodium citrate as the anticoagulant (1:10 volume ratio of citrate to blood). A whole blood cell count was determined with a Medonic CA620 hematology analyzer (Clinical Diagnostic Solutions, Inc., Plantation, Fla., USA). Platelet-rich plasma (PRP), the supernatant present after centrifugation of whole blood at 100×g for 10 min, was diluted with PPP to achieve a platelet count of approximately 300,000/μl. Platelet-poor plasma was prepared by centrifuging the remaining blood at 1,500×g for 10 min and discarding the bottom cellular layer. The diluted PRP was divided into 0.5 ml samples, centrifuged again at 170×g for 10 mins, and the resulting supernatant was discarded. The platelet pellets were re-suspended in platelet-poor plasma containing the various chemical inhibitors prepared as described previously and incubated with gentle shaking at 37° C. for 60 min to modify the P2Y12 receptor. Ex vivo platelet aggregation was assessed by established nephelometric methods with the use of a 4-channel aggregometer (BioData PAP-4; BioData Corp., Horsham, Pa., USA) by recording the increase in light transmission through a stirred suspension of PRP maintained at 37° C. Platelet aggregation was induced with ADP (10 μM). A subaggregatory concentration of epinephrine (550 nM) was used to prime the platelets before addition of the agonist.

[4] = read-out: Km for GSH; previously reported (Zhang 2012); cited from earlier work

| SMILES | formation of the AM (in words) [1] | Km [2] [µM] | also measured |
| --- | --- | --- | --- |
| COC(=O)C(c1ccccc1Cl)N1CCC(SSc2ncccc2[N+](=O)[O-])C(=CC(=O)O)C1 [(S)-clopNPT] |  |  | inhibition of platelet activity (platelet aggregation; 2 mg/kg IV, Readisorb-treated rabbit, within one hour of IV injection): ~70%; inhibition of platelet aggregation (platelet aggregation; 2 mg/kg IV, dosed with glutathione or to Readisorb glutathione treated rabbit): more than 50% |
| COC(=O)[C@H](c1ccccc1Cl)N1CCc2sccc2C1 [(S)-clopidogrel, (+)-(S)-methyl 2-(2-chlorophenyl)-2-(6,7-dihdrothieno[3,2-c]pyridine-5(4H)-yl)acetate, reference compound] |  |  | inhibition of platelet aggregation (in words) (platelet aggregation; 2 mg/kg intravenously, blood 1 and 2 hours after dosing, 10 μM ADP): did not inhibit platelet aggregation |
| Sc1ccc(Cl)nn1 [CPT, 6-chloropyridazine-3-thiol] | No AM was observed | 23 |  |
| Cc1cc(S)c(C)o1 [DFT, 2,5-dimethylfuran-3-thiol] | No AM was observed | 30 |  |
| N[C@@H](CCC(=O)N[C@@H](CS)C(=O)NCC(=O)O)C(=O)O [GSH, glutathione, reference compound] |  |  | effect on platelet aggregation [3]: no effect on platelet aggregation; Km [4]: 300 µM |
| O=[N+]([O-])c1cccnc1S [NPT, 3-nitropyridine-2-thiol] | No AM was observed | 51 |  |
